Test results reported in PubChem BioAssay (NCI).
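Method: 48-hour compound exposure of cells in 96-well plates, five concentrations, linear interpolation of endpoints. At the TGI there is no net growth.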

How the values were obtained:
[1] = system: SN12K1 renal; assay: NCI tumour cell line growth inhibition, 48 h
[2] = system: P388/ADR leukemia; assay: NCI tumour cell line growth inhibition, 48 h

CC(=O)OCC1OC(n2cc(F)c(=O)[nH]c2=O)C(NC(=O)OCc2ccccc2)C(OC(C)=O)C1OC(C)=O (configuration not stated)
TGI [1]: > 100 µM | TGI [2]: > 100 µM
